Source: PubChem BioAssay (NCI)
“And” between values parts separate entries of the source, which are not always exact repeats. Equal entries are not always repeated.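 In this assay, cells in 96-well plates receive the compound at five concentrations for 48 hours. Endpoints are linearly interpolated between the surrounding concentrations. GI50 marks 50% less growth. TGI is the concentration that stops growth completely.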

Columns and labels:
Assay in all cases: NCI tumour cell line growth inhibition, 48 h
LXFL 529 NSCLC = tested on: LXFL 529 NSCLC
RXF-631 renal = tested on: RXF-631 renal
DLD-1 colon = tested on: DLD-1 colon
DMS 114 small cell lung = tested on: DMS 114 small cell lung
DMS 273 small cell lung = tested on: DMS 273 small cell lung
XF 498 CNS = tested on: XF 498 CNS
HOP-18 NSCLC = tested on: HOP-18 NSCLC
MDA-N = tested on: MDA-N
P388/ADR leukemia = tested on: P388/ADR leukemia
SN12K1 renal = tested on: SN12K1 renal
P388 leukemia = tested on: P388 leukemia

| Compound | TGI (LXFL 529 NSCLC) [µM] | TGI (DLD-1 colon) [µM] | TGI (DMS 114 small cell lung) [µM] | TGI (DMS 273 small cell lung) [µM] | TGI (XF 498 CNS) [µM] | TGI (HOP-18 NSCLC) [µM] | TGI (MDA-N) | also measured |
| --- | --- | --- | --- | --- | --- | --- | --- | --- |
| CCOc1ccc(NC(=O)/C(CC(=O)c2c[n+](=O)c3ccccc3n2[O-])=N\OCCCc2ccccc2)cc1 | > 100 | > 100 | > 100 | > 100 |  |  |  | TGI (RXF-631 renal): > 100 µM |
| COc1ccc(-c2ccc(CC(=O)O)cc2)cc1OC | > 100 | > 100 | > 100 |  | > 100 |  |  |  |
| Cc1cccc(C)c1NC(=O)C(=O)Cc1nc2ccccc2s1 | > 100 | > 100 | > 100 | > 100 | > 100 |  |  |  |
| O=C1NC(O)n2c(=O)[nH]c(=O)n21 (stereo not given) | > 100 | > 100 |  | > 100 | > 100 | > 100 |  | TGI (RXF-631 renal): > 100 µM |
| N=C1CCCC1C(=S)SCCC(N)=O (stereo not given) |  |  |  |  |  |  | > 100 µM |  |
| Cc1cc(Cl)ccc1NC(=O)CCCC(=O)C1C/C(=N/O)CC/C1=N\O (stereo not given) | > 100 | > 100 | > 100 | > 100 | > 100 | > 100 |  | TGI (RXF-631 renal): > 100 µM |
| N#C/C(=C\c1ccc2[nH]ccc2c1)C(=O)NCCCCNC(=O)/C(C#N)=C/c1ccc2[nH]ccc2c1 | > 100 | > 100 | > 100 | > 100 | > 100 |  | > 10 µM |  |
| COc1cc(C)c2c(c1)CN1CN2Cc2cc(OC)cc(C)c21 | > 100 | > 100 | 75.1 | > 100 |  |  |  |  |
| COC(=O)C1CC(c2ccc(OC)c(OC)c2)OC1=O (mixture of isomers) | > 100 | > 100 | > 100 | > 100 | > 100 |  |  | TGI (RXF-631 renal): > 100 µM |
| Cc1nnc2n1N=C(c1ccccc1)C(c1ccccc1)S2 (stereo not given) | > 100 | > 100 | 52.4 | > 100 | > 100 | > 100 |  |  |
| C1=CC(=P(c2ccccc2)(c2ccccc2)c2ccccc2)C=C1 | 13 | 62.5 | 15.9 | 26.4 | 12.6 |  |  | TGI (RXF-631 renal): 46.7 µM |
| Cc1cc2c(c(C(=O)O)c1C)-c1cccc(Cl)c1C2=O | > 100 | > 100 | > 100 | > 100 | > 100 |  |  |  |
| COc1ccc(-c2nc3ccccc3s2)cc1OC |  |  |  |  |  |  | > 100 µM |  |
| c1cnc2c(c1)-n1cccc1C1(CCCCC1)NN2 |  |  | > 100 | > 100 | > 100 | > 100 |  |  |
| Clc1ccccc1C(Nc1cnccn1)Nc1cnccn1 |  |  |  |  |  |  | > 100 µM |  |
| Oc1ccc(Cl)cc1C=Nc1cnc2ccccc2c1 |  |  |  |  |  |  | > 100 µM |  |
| Cc1c(C)c([N+](=O)[O-])c2c(c1N)C(=O)c1ccccc1C2=O | > 100 | > 100 | > 100 | > 100 | > 100 | > 100 |  |  |
| COC(=O)C1C=CCC2CCCCC21N1CCCC1 (stereo not given) | > 100 | > 100 | > 100 | > 100 |  | > 100 |  | TGI (RXF-631 renal): > 100 µM |
| CC1CCC2C(C)C(=O)OC2C2(C)C(=O)C=CC12 (stereo not given) |  |  |  |  |  |  | > 10 µM |  |
| Cc1cc(=O)[nH]c(NNC(C#N)c2cccc([N+](=O)[O-])c2)n1 (stereo not given) | > 100 | > 100 | > 100 | > 100 |  | > 100 |  |  |
| CC(=O)Nc1ccc(C2CC(c3ccc([N+](=O)[O-])cc3)=Nc3ccccc3S2)cc1 (stereo not given) | 41.7 | 32.4 |  | 71.4 | 27 | 78.2 |  | TGI (RXF-631 renal): 70 µM |
| OCC(O)C(O)C(O)C(/C=N\Nc1ncnc2c(Br)cc(Br)cc12)=N/Nc1ncnc2c(Br)cc(Br)cc12 (stereo not given) |  |  |  |  |  |  | 23.2 µM and > 100 µM |  |

| Compound | TGI (LXFL 529 NSCLC) [µM] | TGI (DLD-1 colon) [µM] | TGI (DMS 114 small cell lung) [µM] | TGI (DMS 273 small cell lung) [µM] | TGI (XF 498 CNS) [µM] | TGI (HOP-18 NSCLC) [µM] | TGI (MDA-N) | also measured |
| --- | --- | --- | --- | --- | --- | --- | --- | --- |
| COC1(OC)C2(Cl)C3=CCCC=C3C1(Cl)C(Cl)=C2Cl | > 100 | > 100 | 49.9 | 39.8 | 50.2 |  |  | TGI (RXF-631 renal): 30.3 µM |
| O=C(c1ccccc1)C1N=NN(Cc2ccccc2[N+](=O)[O-])C1C(=O)c1ccccc1 (stereo not given) | > 100 | > 100 | > 100 | > 100 |  | > 100 |  |  |
| CCOc1c(Br)cc(Br)cc1C=C(C#N)C#N |  |  |  |  |  |  | > 10 µM |  |
| CN(C)C(=S)/N=c1\ss/c(=N\C(=S)N(C)C)n1-c1cccc(Cl)c1 |  |  | > 100 | > 100 |  |  |  |  |
| Cc1cccc(C2NC(=O)c3ccccc3N2)c1 (stereo not given) |  |  |  |  |  |  | 3.45 µM |  |
| CC(C)(C)C#COC(=O)c1ccccc1 | > 100 | > 100 | > 100 |  |  |  |  |  |
| CC(=O)[CH-]C(C)=O.CC(=O)[CH-]C(C)=O.[O-]c1ccccc1.[O-]c1ccccc1.[Ti+4] | > 100 | > 100 | > 100 | > 100 | > 100 | > 100 |  | GI50 (LXFL 529 NSCLC): > 100 µM; GI50 (HOP-18 NSCLC): > 100 µM; GI50 (DLD-1 colon): > 100 µM; GI50 (DMS 114 small cell lung): > 100 µM; GI50 (DMS 273 small cell lung): > 100 µM; GI50 (XF 498 CNS): > 100 µM |
| O=c1c(-c2ccc3c(c2)OCO3)coc2c3c(ccc12)OCO3 |  |  |  |  |  |  | > 100 µM |  |
| [N-]=[N+]=CC(=O)CCC(N)C(=O)O (stereo not given) |  | > 170 | 95.5 | > 250 | 230 | > 250 | > 250 µM | GI50 (MDA-N): 2.26 µM; TGI (P388/ADR leukemia): 30.4 µM; TGI (SN12K1 renal): 141 µM; TGI (P388 leukemia): 21.9 µM |
| COc1c2ccoc2nc2c(OC)c(OCC(O)C(C)(C)O)ccc12 (stereo not given) |  |  |  |  |  |  | > 100 µM |  |
| O=C(Nc1ccc(Cl)cc1C(F)(F)F)C(=O)Nn1c(=S)[nH]c2ccccc2c1=O |  |  |  |  |  |  | > 100 µM |  |
| Cc1n[nH]c2ccccc2c1=O |  |  |  |  |  |  | > 100 µM |  |
| CC(C)Cc1cnc(CC(C)C)c(=O)[nH]1 |  |  |  |  |  |  | > 100 µM |  |
| CN1CCCC2[C@@H]3CCC4c5nonc5CC[C@]4(C)C3CC[C@@]21C (stereo not given in full) | > 100 | > 100 | > 100 | > 100 | 81.8 | > 100 |  |  |
| O=c1[nH]ccc(CNC23CC4CC(CC(C4)C2)C3)c1O | > 100 | > 100 |  | > 100 | > 100 | > 100 |  |  |
| N/N=C(/Cc1ccccc1)NNO | > 100 | > 100 | > 100 | > 100 |  | > 100 |  | TGI (RXF-631 renal): > 100 µM |
| NCCO/C=C/C(N)C(=O)O (stereo not given) |  |  |  |  |  |  | > 100 µM |  |
| C[C@@H]1C[C@@H]([C@H](O)CC2CC(=O)NC(=O)C2)C(=O)[C@@H](C)C1 | 0.623 | 1.98 | 1.79 |  | 0.504 |  |  | TGI (RXF-631 renal): 0.608 µM |
| O=c1c(Cc2ccccc2)c(O)cc2n1CCC2 | > 100 | > 100 | > 100 |  | > 100 | > 100 |  | TGI (RXF-631 renal): > 100 µM |
| O=C1CC23CCCCCCCCCCC2(C1)CC(=O)C3 (stereo not given) | > 100 | > 100 | 77.6 | 52.5 | 49.2 | 92.7 |  |  |
| c1ccc2c(c1)[nH]c1c2nc2ccccn21 | > 100 | > 100 | > 100 | > 100 | > 100 | > 100 |  | TGI (RXF-631 renal): > 100 µM |
